Here are results for 20 compounds from patent US9777005B2 (Takeda Pharmaceutical Company Limited, priority 2012, dated 2017).

The structures appear in SMILES notation.

This assay addresses T1, human M1 receptor (hCHRM1) (Homo sapiens, UniProt P11229).
T1 construct: expressed in transfected cells; host or cells: CHO-K1
T1 sequence (P11229 1-460): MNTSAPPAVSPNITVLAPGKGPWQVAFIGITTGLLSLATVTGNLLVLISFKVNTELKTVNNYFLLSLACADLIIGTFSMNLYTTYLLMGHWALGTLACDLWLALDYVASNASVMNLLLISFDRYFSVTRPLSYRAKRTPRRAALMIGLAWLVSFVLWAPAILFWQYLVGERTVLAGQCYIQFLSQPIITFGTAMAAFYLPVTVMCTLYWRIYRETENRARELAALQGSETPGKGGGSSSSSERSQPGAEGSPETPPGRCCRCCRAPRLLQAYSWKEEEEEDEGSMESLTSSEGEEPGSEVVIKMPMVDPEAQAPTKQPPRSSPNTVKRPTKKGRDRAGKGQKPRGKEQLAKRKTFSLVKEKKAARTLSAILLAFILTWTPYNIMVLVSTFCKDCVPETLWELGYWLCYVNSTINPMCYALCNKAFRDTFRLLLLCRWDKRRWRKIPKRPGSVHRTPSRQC
Briefly: Measurement of M1 receptor positive allosteric modulator (M1PAM) activity, calcium fluorescence (FLIPRtetra) in CHO-K1 cells in the presence of acetylcholine at EC20. In kind it is cell-based. Particulars: in the presence of acetylcholine at EC20 (final 0.6 nM), CHO-K1 cells expressing hCHRM1; for EC50: inflection point of M1PAM activity, read-out: IP value; for activity (%) at 10 μM: test compound 10 μM. In a few lines: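 CHO-K1 cells expressing human M1 were loaded with Fluo-4 AM, and compound was added with acetylcholine at EC20 (final 0.6 nM). Calcium fluorescence was read on FLIPRtetra for 1 min. Activity was normalized to 1 μM acetylcholine (100%) and DMSO (0%), and the curve inflection point was reported as IP.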

Turning to `O=C1c2c(ccnc2O[C@H]2CCCC[C@@H]2O)CN1Cc1ccc(Cl)s1` (relative stereo) [Example 401, 2-((5-chloro-2-thienyl)methyl)-4-((trans-2-hydroxycyclohexyl)oxy)-1,2-dihydro-3H-pyrrolo[3,4-c]pyridin-3-one], the EC50 stood at 48 nM and the “activity (%) at 10 μM” value is 92%.
As for `Cc1nn(C)cc1-c1ccc(CN2Cc3ccnc(OCc4ccccc4F)c3C2=O)c(F)c1` [Example 343, 2-(4-(1,3-dimethyl-1H-pyrazol-4-yl)-2-fluorobenzyl)-4-((2-fluorobenzyl)oxy)-1,2-dihydro-3H-pyrrolo[3,4-c]pyridin-3-one], the EC50 came out at 29 nM and the “activity (%) at 10 μM” value amounted to 94%.
For `Cc1cc(-c2ccc(CN3Cc4ncnc(Oc5ccc(C(F)(F)F)cc5F)c4C3=O)cc2)cnn1` [Example 311, 4-(2-fluoro-4-(trifluoromethyl)phenoxy)-6-(4-(6-methylpyridazin-4-yl)benzyl)-6,7-dihydro-5H-pyrrolo[3,4-d]pyrimidin-5-one], in that order: 16 nM and 100%.
The like results for `Cn1cc(-c2ccc(CN3Cc4ccnc(Oc5c(F)cccc5Cl)c4C3=O)cc2)nn1` [Example 231, 4-(2-chloro-6-fluorophenoxy)-2-(4-(1-methyl-1H-1,2,3-triazol-4-yl)benzyl)-1,2-dihydro-3H-pyrrolo[3,4-c]pyridin-3-one] were, in that order, 24 nM and 106%.
The like results for `Cn1ccc(-c2ccc(CN3Cc4cccc(O[C@@H]5COCC[C@H]5O)c4C3=O)cc2)n1` [Example 273, 1,5-anhydro-2-deoxy-4-O-(2-(4-(1-methyl-1H-pyrazol-3-yl)benzyl)-3-oxo-2,3-dihydro-1H-isoindol-4-yl)-threo-pentitol] were, in that order, 8.5 nM and 103%.
In the case of `O=C1c2c(ccnc2OCC2CCCO2)CN1Cc1ccc(-n2cccn2)cc1F` (stereo not shown) [Example 86, 2-(2-fluoro-4-(1H-pyrazol-1-yl)benzyl)-4-((tetrahydrofuran-2-yl)methoxy)-1,2-dihydro-3H-pyrrolo[3,4-c]pyridin-3-one], the EC50 worked out at 17 nM and the “activity (%) at 10 μM” value is on record as 104%.
For `NC(=O)c1ccc(CN2Cc3ccnc(Oc4ccc(C(F)(F)F)cc4F)c3C2=O)cc1` [Example 422, 4-((4-(2-fluoro-4-(trifluoromethyl)phenoxy)-3-oxo-1,3-dihydro-2H-pyrrolo[3,4-c]pyridin-2-yl)methyl)benzamide], in that order: 12 nM and 107%.
The like results for `Cn1cc(-c2ccc(CN3Cc4ncnc(Oc5ccc(C(F)(F)F)cc5F)c4C3=O)cc2)cn1` [Example 306, 4-(2-fluoro-4-(trifluoromethyl)phenoxy)-6-(4-(1-methyl-1H-pyrazol-4-yl)benzyl)-6,7-dihydro-5H-pyrrolo[3,4-d]pyrimidin-5-one] were, in that order, 8.9 nM and 97%.
`O=C1c2c(ccnc2O[C@H]2CCC[C@@H]2O)CN1Cc1ccc(-n2cccn2)cc1` (relative stereo) [Example 77, 4-((trans-2-hydroxycyclopentyl)oxy)-2-(4-(1H-pyrazol-1-yl)benzyl)-1,2-dihydro-3H-pyrrolo[3,4-c]pyridin-3-one]: the EC50 came to 39 nM and the “activity (%) at 10 μM” value is given as 103%.
For the compound `Cc1cc(-c2ccc(CN3Cc4cccc(Oc5c(F)cc(C#N)cc5F)c4C3=O)cc2)cnn1` [Example 398, 3,5-difluoro-4-((2-(4-(6-methylpyridazin-4-yl)benzyl)-3-oxo-2,3-dihydro-1H-isoindol-4-yl)oxy)benzonitrile], the EC50 came out at 20 nM and the “activity (%) at 10 μM” value turned out to be 99%.
The like results for `Cc1nn(C)cc1-c1ccc(CN2Cc3ccnc(OCC4CCOC4)c3C2=O)cc1` (stereo not shown) [Example 265, 2-(4-(1,3-dimethyl-1H-pyrazol-4-yl)benzyl)-4-((tetrahydrofuran-3-yl)methoxy)-1,2-dihydro-3H-pyrrolo[3,4-c]pyridin-3-one] were, in that order, 24 nM and 96%.
The like results for `O=C1c2c(cccc2O[C@@H]2CCOC[C@H]2O)CN1Cc1ccc(Br)cc1` (single isomer, unassigned) [Example 268, 1,5-anhydro-3-O-(2-(4-bromobenzyl)-3-oxo-2,3-dihydro-1H-isoindol-4-yl)-2-deoxy-threo-pentitol] were, in that order, 39 nM and 103%.
Turning to `O=C1c2c(cccc2O[C@H]2CCCC[C@@H]2O)CN1Cc1ccc(-c2ccn[nH]2)cc1` (relative stereo) [Example 31, 7-((trans-2-hydroxycyclohexyl)oxy)-2-(4-(1H-pyrazol-5-yl)benzyl)isoindolin-1-one], the EC50 worked out at 8.5 nM and the “activity (%) at 10 μM” value was found to be 105%.
In the case of `CNC(=O)c1ccc(CN2Cc3ccnc(Oc4ccc(CC(F)(F)F)cc4F)c3C2=O)cc1` [Example 457, 4-((4-(2-fluoro-4-(2,2,2-trifluoroethyl)phenoxy)-3-oxo-1,3-dihydro-2H-pyrrolo[3,4-c]pyridin-2-yl)methyl)-N-methylbenzamide], the EC50 was determined as 8.6 nM and the “activity (%) at 10 μM” value is 91%.
For `Cc1nn(C)cc1-c1ccc(CN2Cc3cccc(OCC45CCC(CC4)O5)c3C2=O)cc1` [Example 354, 2-(4-(1,3-dimethyl-1H-pyrazol-4-yl)benzyl)-7-((7-oxabicyclo[2.2.1]hept-1-yl)methoxy)isoindolin-1-one], in that order: 270 nM and 93%.
For `Cn1ccc(-c2ccc(CN3Cc4ccnc(Oc5ccc(C(F)F)cc5F)c4C3=O)cc2)n1` [Example 380, 4-(4-(difluoromethyl)-2-fluorophenoxy)-2-(4-(1-methyl-1H-pyrazol-3-yl)benzyl)-1,2-dihydro-3H-pyrrolo[3,4-c]pyridin-3-one], in that order: 22 nM and 102%.
For `Cn1cc(-c2ccc(CN3Cc4ccnc(OC5CCC5)c4C3=O)cc2)nn1` [Example 335, 4-(cyclobutyloxy)-2-(4-(1-methyl-1H-1,2,3-triazol-4-yl)benzyl)-1,2-dihydro-3H-pyrrolo[3,4-c]pyridin-3-one], in that order: 57 nM and 98%.
For the compound `CCC(O)COc1cccc2c1C(=O)N(Cc1ccc(-c3cnn(C)c3)cc1)C2` (stereo not shown) [Example 261, 7-(2-hydroxybutoxy)-2-(4-(1-methyl-1H-pyrazol-4-yl)benzyl)isoindolin-1-one], the EC50 was 25 nM and the “activity (%) at 10 μM” value stood at 98%.
As to `Cc1cc(-c2ccc(CN3Cc4cccc(O[C@H]5CCCC[C@@H]5O)c4C3=O)cc2)cnn1` (relative stereo) [Example 355, 7-((trans-2-hydroxycyclohexyl)oxy)-2-(4-(6-methylpyridazin-4-yl)benzyl)isoindolin-1-one], the EC50 worked out at 4.3 nM and the “activity (%) at 10 μM” value was 95%.
For `CCc1ccc(Oc2nccc3c2C(=O)N(Cc2ccc(C(N)=O)cc2)C3)c(F)c1` [Example 449, 4-((4-(4-ethyl-2-fluorophenoxy)-3-oxo-1,3-dihydro-2H-pyrrolo[3,4-c]pyridin-2-yl)methyl)benzamide], in that order: 9.3 nM and 99%.
